Where “and” joins values, the source holds several entries; their conditions need not be identical. Equal values may be shown once. Read-outs that look alike come from different tables or passages of the source.
Key:
[1] = Brain pharmacokinetics and brain/plasma ratio in male CD-1 mice (1 mg/kg i.v.); type: in vivo; settings: for Brain concentration / Brain/plasma concentration ratio / Kp at 5 min / Kp at 0.25 h / Kp at 0.5 h / Kp at 8 h / concentration at 5 min / concentration at 0.25 h / concentration at 0.5 h / concentration at 1 h / concentration at 2 h / concentration at 4 h / concentration at 6 h / concentration at 8 h / Kp at 1 h / Kp at 2 h / Kp at 4 h / Kp at 6 h: 1 mg/kg bolus i.v.; for Brain/plasma concentration ratio: listed as 1a; for Kp at 5 min / Kp at 0.25 h / Kp at 0.5 h / Kp at 8 h: brain and plasma; for concentration at 5 min / concentration at 0.25 h / concentration at 0.5 h / concentration at 1 h / concentration at 2 h / concentration at 4 h / concentration at 6 h / concentration at 8 h: intravenous
Protocol: (§1) Male CD-1 mice were given either bolus 1 mg/kg i.v. or 3 mg/kg p.o. of the indicated compounds and plasma or brain concentrations were measured.
(§2) Where: • C0 concentration extrapolated to time zero following an i.v. dose • tmax time at which maximum concentration is observed • Cmax maximum observed concentration • Apparent t1/2 apparent terminal half-life • AUC0-tlast area under the concentration vs time curve from time 0 to the time of the last measurable concentration • AUC0-inf area under the concentration vs time curve from time 0 to infinity • CL systemic clearance • MRT0-inf mean residence time from time zero to infinity • Vss steady-state volume of distribution • F oral bioavailability=(Dose^iv*AUC^po)/(Dose^po*AUC^iv)*100

[2] = Plasma pharmacokinetics in male CD-1 mice (1 mg/kg i.v. or 3 mg/kg p.o.); settings: CD-1, mouse, in vivo
Protocol: as §1, §2

ADORA2A = ADORA2A (Homo sapiens, UniProt P29274); assay: GPCR screening, calcium flux (calcium mobilization), antagonist format; type: cell-based
Protocol: To ascertain whether the compounds are suitable A2aR antagonists, the compounds of formulae I, II, III, and IV were subjected to GPCR screening using A2aR as the target. The screening was done using the GPCR Screening and Profiling Services by Eurofins DiscoverX Corporation.
The compounds of formulae I, II, III, and IV were screened for GPCR activity using A2aR as the target.
Cell lines were expanded from freezer stocks according to standard procedures. Cells were seeded in a total volume of 20 μL into black-walled, clear-bottom, Poly-D-lysine coated 384-well microplates and incubated at 37° C. for the appropriate time prior to testing.
Assays were performed in 1× Dye Loading Buffer consisting of 1× Dye, 1× Additive A and 2.5 mM Probenecid in HBSS/20 mM Hepes. Probenicid was prepared fresh. Cells were loaded with dye prior to testing. Media was aspirated from cells and replaced with 20 μL Dye Loading Buffer. Cells were incubated for 30-60 minutes at 37° C.
For antagonist determination, cells were pre-incubated with sample followed by agonist challenge at the EC80 concentration. Intermediate dilution of sample stocks was performed to generate 3× sample in assay buffer. After dye loading, cells were removed from the incubator and 10 μL 3× sample was added. Cells were incubated for 30 minutes at room temperature in the dark to equilibrate plate temperature. Vehicle concentration was 1%. Compound antagonist activity was measured on a FLIPR Tetra (MDS). Calcium mobilization was monitored for 2 minutes and 10 μL EC80 agonist in HBSS/20 mM Hepes was added to the cells 5 seconds into the assay.
For antagonist and negative allosteric modulation mode assays, percentage inhibition is calculated using the following formula: % Inhibition=100%×(1−(mean RFU of test sample−mean RFU of vehicle control)/(mean RFU of EC80 control−mean RFU of vehicle control)).
When the calcium was released, the fluorescence of the dye was increased and the increase was measured in real-time.
FIGS. 1 to 6 show percent reacted (Y) versus concentration in μM (X). Compounds were tested in antagonist mode with the requested GPCR Biosensor Assay. For the antagonist assay, data was normalized to the maximal and minimal response observed in the presence of EC80 ligand and vehicle.

[3] = male, CD-1, mouse, iv, brain, i.v. 1 mg/kg

ADORA2A, sequence (P29274 whole entry): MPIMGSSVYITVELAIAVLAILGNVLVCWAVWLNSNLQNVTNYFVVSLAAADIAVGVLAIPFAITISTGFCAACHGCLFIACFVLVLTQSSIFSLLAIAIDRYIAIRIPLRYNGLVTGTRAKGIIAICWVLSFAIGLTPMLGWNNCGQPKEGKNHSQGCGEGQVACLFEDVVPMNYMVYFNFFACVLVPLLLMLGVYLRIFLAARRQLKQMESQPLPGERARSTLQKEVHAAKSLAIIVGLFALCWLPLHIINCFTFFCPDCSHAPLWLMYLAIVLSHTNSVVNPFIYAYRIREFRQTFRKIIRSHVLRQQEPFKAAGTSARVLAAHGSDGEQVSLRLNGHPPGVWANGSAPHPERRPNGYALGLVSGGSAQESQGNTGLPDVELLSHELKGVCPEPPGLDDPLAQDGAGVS

CCn1c(=O)c2c(nc(/C=C/c3ccc(OC(F)F)c(OC(F)F)c3)n2C)n(CC)c1=O [Formula I, 8-[(E)-2-[3,4-bis(difluoromethoxy)phenyl]vinyl]-1,3-diethyl-7-methyl-purine-2,6-dione;hydrofluoride]
Brain concentration ([1]; 5 min, individual animals 1-3): 851 ng/g and 682 ng/g | Brain/plasma concentration ratio ([1]; 5 min, individual animals 1-3): 0.867 and 0.751 | Brain concentration ([1]; 0.25 h, individual animals 1-3): 426 ng/g and 665 ng/g | Brain/plasma concentration ratio ([1]; 0.25 h, individual animals 1-3): 0.789 and 0.795 | Brain concentration ([1]; 0.5 h, individual animals 1-3): 282 ng/g and 381 ng/g | Brain/plasma concentration ratio ([1]; 0.5 h, individual animals 1-3): 0.535 and 0.779 | Brain concentration ([1]; 1 h, individual animals 1-3): 318 ng/g and 175 ng/g | Brain/plasma concentration ratio ([1]; 1 h, individual animals 1-3): 0.763 and 0.550 | Brain concentration ([1]; 2 h, individual animals 1-3): 195 ng/g and 185 ng/g | Brain/plasma concentration ratio ([1]; 2 h, individual animals 1-3): 0.739 and 0.661 | Brain concentration ([1]; 4 h, individual animals 1-3): 158 ng/g and 198 ng/g | Brain/plasma concentration ratio ([1]; 4 h, individual animals 1-3): 0.745 and 0.783 | Brain concentration ([1]; 6 h, individual animals 1-3): 138 ng/g and 122 ng/g | Brain/plasma concentration ratio ([1]; 6 h, individual animals 1-3): 0.683 and 0.758 | Brain concentration ([1]; 8 h, individual animals 1-3): 118 ng/g and 114 ng/g | Brain/plasma concentration ratio ([1]; 8 h, individual animals 1-3): 0.771 and 0.809 | AUC0-tlast ([1]; brain, i.v. 1 mg/kg): 1,447 h*ng/g | AUC(0-inf) ([1]; brain, i.v. 1 mg/kg): 2807^a h*ng/g | Kp at 5 min ([1]; male, CD-1, mouse, iv, 1 mg/kg, 5 min, individual animals 1-3, read-out: Brain/plasma concentration ratio): 0.757 | Kp at 5 min ([1]; male, CD-1, mouse, iv, 1 mg/kg, 5 min, read-out: Brain/plasma concentration ratio, Mean): 0.792 | Kp at 0.25 h ([1]; male, CD-1, mouse, iv, 1 mg/kg, 0.25 h, individual animals 1-3, read-out: Brain/plasma concentration ratio): 0.635 | Kp at 0.25 h ([1]; male, CD-1, mouse, iv, 1 mg/kg, 0.25 h, read-out: Brain/plasma concentration ratio, Mean): 0.74 | Kp at 0.5 h ([1]; male, CD-1, mouse, iv, 1 mg/kg, 0.5 h, individual animals 1-3, read-out: Brain/plasma concentration ratio): 0.731 | Kp at 0.5 h ([1]; male, CD-1, mouse, iv, 1 mg/kg, 0.5 h, read-out: Brain/plasma concentration ratio, Mean): 0.682 | Kp at 8 h ([1]; male, CD-1, mouse, iv, 1 mg/kg, 8 h, individual animals 1-3, read-out: Brain/plasma concentration ratio): 0.902 | Kp at 8 h ([1]; male, CD-1, mouse, iv, 1 mg/kg, 8 h, read-out: Brain/plasma concentration ratio, Mean): 0.827 | concentration at 5 min ([1]; male, CD-1, mouse, brain, 1 mg/kg, 5 min, individual animals 1-3, read-out: Brain concentration): 818 ng/g | concentration at 5 min ([1]; male, CD-1, mouse, brain, 1 mg/kg, 5 min, read-out: Brain concentration, Mean): 784 ng/g | concentration at 0.25 h ([1]; male, CD-1, mouse, brain, 1 mg/kg, 0.25 h, individual animals 1-3, read-out: Brain concentration): 373 ng/g | concentration at 0.25 h ([1]; male, CD-1, mouse, brain, 1 mg/kg, 0.25 h, read-out: Brain concentration, Mean): 488 ng/g | concentration at 0.5 h ([1]; male, CD-1, mouse, brain, 1 mg/kg, 0.5 h, individual animals 1-3, read-out: Brain concentration): 377 ng/g | concentration at 0.5 h ([1]; male, CD-1, mouse, brain, 1 mg/kg, 0.5 h, read-out: Brain concentration, Mean): 347 ng/g | concentration at 1 h ([1]; male, CD-1, mouse, brain, 1 mg/kg, 1 h, individual animals 1-3, read-out: Brain concentration): 269 ng/g | concentration at 1 h ([1]; male, CD-1, mouse, brain, 1 mg/kg, 1 h, read-out: Brain concentration, Mean): 254 ng/g | concentration at 2 h ([1]; male, CD-1, mouse, brain, 1 mg/kg, 2 h, individual animals 1-3, read-out: Brain concentration): 159 ng/g | concentration at 2 h ([1]; male, CD-1, mouse, brain, 1 mg/kg, 2 h, read-out: Brain concentration, Mean): 180 ng/g | concentration at 4 h ([1]; male, CD-1, mouse, brain, 1 mg/kg, 4 h, individual animals 1-3, read-out: Brain concentration): 120 ng/g | concentration at 4 h ([1]; male, CD-1, mouse, brain, 1 mg/kg, 4 h, read-out: Brain concentration, Mean): 159 ng/g | concentration at 6 h ([1]; male, CD-1, mouse, brain, 1 mg/kg, 6 h, individual animals 1-3, read-out: Brain concentration): 91.2 ng/g | concentration at 6 h ([1]; male, CD-1, mouse, brain, 1 mg/kg, 6 h, read-out: Brain concentration, Mean): 117 ng/g | concentration at 8 h ([1]; male, CD-1, mouse, brain, 1 mg/kg, 8 h, individual animals 1-3, read-out: Brain concentration): 110 ng/g | concentration at 8 h ([1]; male, CD-1, mouse, brain, 1 mg/kg, 8 h, read-out: Brain concentration, Mean): 114 ng/g | Kp at 1 h ([1]; male, CD-1, mouse, brain/plasma, iv, 1 mg/kg, 1 h, individual animals 1-3, read-out: Brain/plasma concentration ratio): 0.714 | Kp at 1 h ([1]; male, CD-1, mouse, brain/plasma, iv, 1 mg/kg, 1 h, read-out: Brain/plasma concentration ratio, Mean): 0.675 | Kp at 2 h ([1]; male, CD-1, mouse, brain/plasma, iv, 1 mg/kg, 2 h, individual animals 1-3, read-out: Brain/plasma concentration ratio): 0.572 | Kp at 2 h ([1]; male, CD-1, mouse, brain/plasma, iv, 1 mg/kg, 2 h, read-out: Brain/plasma concentration ratio, Mean): 0.657 | Kp at 4 h ([1]; male, CD-1, mouse, brain/plasma, iv, 1 mg/kg, 4 h, individual animals 1-3, read-out: Brain/plasma concentration ratio): 0.8 | Kp at 4 h ([1]; male, CD-1, mouse, brain/plasma, iv, 1 mg/kg, 4 h, read-out: Brain/plasma concentration ratio, Mean): 0.776 | Kp at 6 h ([1]; male, CD-1, mouse, brain/plasma, iv, 1 mg/kg, 6 h, individual animals 1-3, read-out: Brain/plasma concentration ratio): 0.86 | Kp at 6 h ([1]; male, CD-1, mouse, brain/plasma, iv, 1 mg/kg, 6 h, read-out: Brain/plasma concentration ratio, Mean): 0.767 | Kp ([1]; male, CD-1, mouse, brain/plasma, iv, 1 mg/kg, i.v. 1 mg/kg, read-out: Brain/plasma AUC0-tlast ratio): 0.71 | Cmax [1, 3]: 784 ng/g | Tmax [1, 3]: 5 min | half-life ([1]; male, CD-1, mouse, iv, brain, i.v. 1 mg/kg, read-out: Apparent t1/2 (converted)): 8.27 h | MRT inf ([1]; male, CD-1, mouse, iv, brain, i.v. 1 mg/kg, read-out: MRT0-inf): 11.2 h | bioavailability [2]: 76% | AUC(0-inf) ([2]; iv, 1 mg/kg): 3240 ng·h/mL | AUC(0-t) ([2]; iv, 1 mg/kg): 2040 ng·h/mL | C0 ([2]; iv, 1 mg/kg): 1220 ng/mL | Cmax ([2]; iv, 1 mg/kg): 990 ng/mL | MRT inf ([2]; iv, 1 mg/kg): 8.02 h | Tmax ([2]; iv, 1 mg/kg): 0.0833 h | Vd ([2]; iv, 1 mg/kg): 2.47 L/kg | clearance ([2]; iv, 1 mg/kg): 5.13 mL/min/kg | half-life ([2]; iv, 1 mg/kg): 6 h | AUC(0-inf) ([2]; po, 3 mg/kg): 5090 ng·h/mL | AUC(0-t) ([2]; po, 3 mg/kg): 4650 ng·h/mL | Cmax ([2]; po, 3 mg/kg): 424 ng/mL | MRT inf ([2]; po, 3 mg/kg): 11.1 h | Tmax ([2]; po, 3 mg/kg): 4 h | half-life ([2]; po, 3 mg/kg): 6.52 h | Curve Bottom (ADORA2A; Antagonist format): 1.23 | Curve Top (ADORA2A; Antagonist format): 99 | Hill (ADORA2A; Antagonist format): 1.4103 | IC50 (ADORA2A; Antagonist format, EC80 0.021 μM NECA, read-out: RC50 (IC50)): 88.5 nM | Emax (ADORA2A; Antagonist format, read-out: Max Response): 98.1% | IC50 (ADORA2A; text to FIGS. 1-4, 6, antagonist mode, read-out: half maximal inhibitory concentration (IC50)): 88.5 nM and 75.5 nM

From US12570656B2, “Purine compounds for treating disorders” (MARVEL BIOTECHNOLOGY, priority 2020, dated 2026)
